# Test results reported in publication PMC3806745, “Selective Inhibition of Matrix Metalloproteinase-9 Attenuates Secondary Damage Resulting from Severe Traumatic Brain Injury” (PLoS ONE, 2013).
# How the values were obtained:
# [1] = Plasma and brain levels and pharmacokinetics of SB-3CT and p-OH SB-3CT after repeated i.p. SB-3CT (UPLC/ESI-MRM); details: mice
# Protocol: (§1) Under anesthesia, terminal blood was collected in heparin tubes through the posterior vena cava at various time points after the last dose, and tubes were centrifuged to collect plasma. Whole brain samples were harvested after transcardiac perfusion with saline and immediately flash frozen in liquid nitrogen and stored at −80°C until analysis. […] At 10 minutes after the last dose, whole brain samples were rapidly dissected into different regions (cortex, striatum, hippocampus, cerebellum and brain stem), and immediately frozen in dry ice.
# (§2) A 75-µL aliquot of plasma was mixed with 150 µL of internal standard in acetonitrile. The sample was centrifuged at 10,000×g for 10 minutes. Brain samples were weighed and homogenized for 5 minutes in one volume equivalent of cold acetonitrile, containing an internal standard, using a bullet blender (Next Advance, Inc., Averill Park, NY). For regional brain distribution, the striatum, hippocampus, cerebellum and brain stem samples were pooled from 3 different mice for analysis.
# The homogenates were centrifuged twice at 20,000×g for 20 minutes at 4°C. […] Quantification was performed using peak area ratios relative to the internal standard and linear regression parameters were calculated from the calibration curve standards prepared in blank mouse plasma (and blank brain). The internal standard used in all of the analyses was N-(4-(4-((thiiran-2-ylmethyl)sulfonyl)phenoxy)phenyl)methanesulfonamide [43], which was analyzed by MRM using the transition 398→261.
# Pharmacokinetic parameters were calculated as follows. The area under the mean concentration-time curve up to the last quantifiable sampling time (AUC 0–last) was calculated by the trapezoidal rule using the pharmacokinetic software PK Solutions (Version 2.0, Summit Research Services, Montrose, CO). The AUC-time curve from time zero to infinity (AUC 0–∞), representing systemic exposure of a therapeutic agent in the body, was calculated as AUC 0–last+(C last/k), where C last is the concentration at the last quantifiable sampling time and k is the elimination rate constant. Half-lives (t ½α and t ½β) were estimated from the linear segment of the initial or terminal portion of the concentration-time data by linear regression, where the slope of the line was the rate constant k and t ½ = ln 2/k.
# [2] = Regional brain distribution of SB-3CT and p-OH SB-3CT after repeated i.p. SB-3CT; assay type: in vivo, mouse; details: mice
# Protocol: as §1, §2
# The homogenates were centrifuged twice at 20,000×g for 20 minutes at 4°C. […] Quantification was performed using peak area ratios relative to the internal standard and linear regression parameters were calculated from the calibration curve standards prepared in blank mouse plasma (and blank brain). The internal standard used in all of the analyses was N-(4-(4-((thiiran-2-ylmethyl)sulfonyl)phenoxy)phenyl)methanesulfonamide [43], which was analyzed by MRM using the transition 398→261. The chromatographic, MRM conditions, and method validation were the same as previously described [17].
# [3] = target: MMP-9; details: cited from earlier work
# [4] = repeated 25 mg/kg i.p. SB-3CT, 20 min after last dose
# [5] = repeated 25 mg/kg i.p. SB-3CT, 30 min after last dose
# [6] = 10 minutes after the last i.p. dose of SB-3CT
smiles,measurement,setting,value
O=S(=O)(CC1CS1)c1ccc(Oc2ccc(O)cc2)cc1 (stereo not shown) [p-OH SB-3CT],"AUC 0–last, brain",[1]; repeated 25 mg/kg i.p. SB-3CT,2.98 pmol·min/mg
same,"AUC 0–last, plasma",[1]; repeated 25 mg/kg i.p. SB-3CT,1.45 µM·min
same,"AUC 0–∞, brain",[1]; repeated 25 mg/kg i.p. SB-3CT,4.61 pmol·min/mg
same,"t ½α, brain",[1]; repeated 25 mg/kg i.p. SB-3CT,4.2 min
same,"t ½α, plasma",[1]; repeated 25 mg/kg i.p. SB-3CT,3.4 min
same,"t ½β (elimination half-life), brain",[1]; repeated 25 mg/kg i.p. SB-3CT,187 min
same,Brain concentration,"[1]; repeated 25 mg/kg i.p. SB-3CT (0, 2, 24 h), 10 min after last dose",0.14±0.04 pmole/mg tissue
same,Plasma concentration,"[1]; repeated 25 mg/kg i.p. SB-3CT, 10 min after last dose",120 ± 30 nM
same,Brain concentration,[1]; [4],0.026±0.005 pmole/mg tissue
same,Plasma concentration,[1]; [4],16 ± 4 nM
same,Brain concentration,[1]; [5],0.015±0.004 pmole/mg tissue
same,Plasma concentration,[1]; [5],6 ± 1 nM
same,Brain concentration,"[1]; repeated 25 mg/kg i.p. SB-3CT, 60 min after last dose",0.011±0.007 pmole/mg tissue
same,Brain concentration,"[1]; repeated 25 mg/kg i.p. SB-3CT, 90 min after last dose",0.0081±0.0022 pmole/mg tissue
same,Brain concentration,"[1]; repeated 25 mg/kg i.p. SB-3CT, 120 min after last dose",0.0076±0.0009 pmole/mg tissue
same,Brain concentration,"[1]; repeated 25 mg/kg i.p. SB-3CT, 180 min after last dose",0.0060±0.0004 pmole/mg tissue
same,Brain AUC /Plasma AUC,"[1]; ratio of AUC 0–last, repeated 25 mg/kg i.p. SB-3CT",2.1
same,"Conc, whole brain","[2]; 10 minutes after the last i.p. dose of SB-3CT (25 mg/kg at 0, 2, 24 h)",0.14±0.04 pmole/mg tissue
same,"Conc, brain stem",[2]; [6],0.13±0.03 pmole/mg tissue
same,"Conc, cerebellum",[2]; [6],0.13±0.03 pmole/mg tissue
same,"Conc, cortex",[2]; [6],0.16±0.05 pmole/mg tissue
same,"Conc, hippocampus",[2]; [6],0.11±0.03 pmole/mg tissue
same,"Conc, plasma",[2]; [6],120 ± 30 nM
same,"Conc, striatum",[2]; [6],0.12±0.04 pmole/mg tissue
same,"Ratio of concentration, brain stem to plasma",[2]; [6],1.1±0.4
same,"Ratio of concentration, cerebellum to plasma",[2]; [6],1.1±0.4
same,"Ratio of concentration, cortex to plasma",[2]; [6],1.3±0.5
same,"Ratio of concentration, hippocampus to plasma",[2]; [6],0.92±0.34
same,"Ratio of concentration, striatum to plasma",[2]; [6],1.0±0.4
same,"Ratio of concentration, whole brain to plasma",[2]; [6],1.2±0.4
same,Ki,[3],0.16 µM
